US6166049A, “Use of an antagonist of PPARα and PPARγ for the treatment of syndrome X” (SmithKline Beecham P.L.C., priority 1996, dated 2000)
pEC50: −log10 of the molar value.

Tests used:
human PPARα = molecular target: T1, human PPARα (Homo sapiens, UniProt Q07869); experiment: hPPARα agonist activity, transactivation reporter gene assay; assay type: cell-based; details: read-out: EC50 for activation of human PPARα
T1 construct: expressed in transfected cells
T1 sequence (Q07869 239-466 limits assumed): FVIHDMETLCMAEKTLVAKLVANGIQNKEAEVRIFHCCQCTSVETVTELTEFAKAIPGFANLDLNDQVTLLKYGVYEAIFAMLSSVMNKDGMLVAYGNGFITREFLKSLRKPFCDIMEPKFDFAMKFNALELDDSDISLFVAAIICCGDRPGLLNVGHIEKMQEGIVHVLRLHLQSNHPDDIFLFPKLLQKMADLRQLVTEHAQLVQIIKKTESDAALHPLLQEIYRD
Excerpt: (§1) PPARα and γ agonist activity may be assessed by use of the methodology, or similar methodology, to that disclosed by Lehmann et al: Journal of Biological Chem., 270, 12953-12956 (1995).
In one aspect PPARα agonist compounds are those which stimulate a PPAR alpha chimeric receptor consisting of the PPAR alpha ligand binding site linked to a suitable reporter gene construct such as luciferase or chloramphenicol acetyltransferase (CAT). This activity can be identified by using the methods outlined by Lehmann et al., ibid.
(a) PPARα agonist activity by detecting stimulation of a PPAR alpha chimeric receptor consisting of the PPAR alpha ligand binding site linked to a suitable reporter gene construct; and
A suitable PPARα chimeric receptor comprises the amino acids of the ligand binding domain, for example amino acids 281-468, of the human PPARα, fused to amino acids 1-147 (DNA binding domain) of the gal 4 yeast transcription factor.
(§2) A suitable reporter gene construct is a luciferase or chloramphenicol acetyltransferase (CAT).
A suitable luciferase reporter gene construct contains gal 4 DNA binding elements in HEK-293 cells.
1) Determination of hPPARα and hPPAR-γ Agonist Activity
(§3) Compound agonist effects at human PPARα and PPARγ were assessed using a transactivation reporter gene assay, based on that described by Lehman et al. (1995) J Biol Chem 270, 12953-12956.

human PPARγ = molecular target: T2, human PPARγ (Homo sapiens, UniProt P37231); experiment: hPPARγ agonist activity, transactivation reporter gene assay; assay type: cell-based; details: read-out: EC50 for activation of human PPARγ
T2 construct: expressed in transfected cells
T2 sequence (P37231 173-476 isoform P37231-2): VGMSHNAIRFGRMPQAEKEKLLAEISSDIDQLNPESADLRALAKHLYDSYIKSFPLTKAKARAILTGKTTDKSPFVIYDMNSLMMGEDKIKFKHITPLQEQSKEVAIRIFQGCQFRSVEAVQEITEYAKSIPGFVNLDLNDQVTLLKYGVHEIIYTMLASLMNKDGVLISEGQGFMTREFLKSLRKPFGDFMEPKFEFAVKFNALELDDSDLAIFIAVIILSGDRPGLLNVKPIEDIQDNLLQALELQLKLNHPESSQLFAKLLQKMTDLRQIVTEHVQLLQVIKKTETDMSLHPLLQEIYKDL
Excerpt: as §1
In one aspect PPARγ agonist compounds are those which stimulate a PPARγ chimeric receptor containing the PPAR gamma ligand binding site linked to a suitable reporter gene construct such as luciferase or chloramphenicol acetyltransferase (CAT). This activity can be identified by using the methods of Lehmann et al. J Biol. Chem., ibid.
(b) PPARγ agonist activity by detecting stimulation of a PPARγ chimeric receptor containing the PPAR gamma ligand binding site linked to a suitable reporter gene construct such as luciferase or chloramphenicol acetyltransferase (CAT).
A suitable PPARγ chimeric receptor comprises the amino acids of the ligand binding domain, for example amino acids 173-476, of the human PPARγ receptor fused to amino acids 1-147 (DNA binding domain) of the gal 4 yeast transcription factor.
as §2
A suitable luciferase reporter gene construct contains gal 4 DNA binding elements in HEK-293 cells. […]
as §3

C57 Bl/KsJ db/db mouse [1] = experiment: Blood glucose in the C57 Bl/KsJ db/db mouse; assay type: in vivo; details: mean ± SD, n = 9-10; for Blood glucose, pre-dose: treated group before dosing (baseline)
Protocol: (§4) 2) Determination of Compound Efficacy on Blood Glucose and Plasma Lipids in the C57 Bl/KsJ db/db Mouse
(§5) This is paralleled by glycosuria and polyuria with a compensatory increase in water intake. Circulating serum triglycerides and free fatty acids are also elevated.
(§6) Compounds are administered by dietary admixture (powdered RM3 diet) for 14 days and blood glucose measured in samples taken from the tail vein of conscious non-fasted mice at appropriate intervals during the treatment period. After the 14 day treatment period, mice are killed by cervical dislocation and blood obtained from the severed jugular veins. Triglyceride and non-esterified fatty acids are measured in samples of serum obtained by centrifugation.

C57 Bl/KsJ db/db mouse [2] = experiment: Serum lipids in the genetically diabetic C57 Bl/KsJ db/db mouse; assay type: in vivo; details: 0.3 umol/kg body wt, dietary admixture, after 14 days, *** p < 0.001, mean ± SD
Protocol: as §4, §5, §6

Compound: CN(CCOc1ccc(C[C@H](OCC(F)(F)F)C(=O)O)cc1)c1nc2ccccc2o1 [(S)-3-[4-[2-[N-(2-benzoxazolyl)-N-methylamino]ethoxy]phenyl]-2-(2,2,2-trifluoroethoxy)propanoic acid]
- pEC50 (human PPARα): 5.60
- pEC50 (human PPARγ): 7.15
- Blood glucose, post dose (13 days) (C57 Bl/KsJ db/db mouse [1]; EXPT I, dietary admixture, 13 days, control 34.0 ± 7.9, *** p < 0.001): 11.0 ± 3.6 mmol/L
- Blood glucose, pre-dose (C57 Bl/KsJ db/db mouse [1]; EXPT I, control 15.5 ± 3.7): 15.6 ± 4.0 mmol/L
- Blood glucose, Day 1 (C57 Bl/KsJ db/db mouse [1]; EXPT II, dietary admixture, Day 1, control 17.2 ± 3.7): 14.1 ± 3.7 mmo/l
- Blood glucose, Day 2 (C57 Bl/KsJ db/db mouse [1]; EXPT II, dietary admixture, Day 2, control 19.9 ± 2.7, ** p < 0.01): 15.0 ± 3.4 mmo/l
- Blood glucose, Day 3 (C57 Bl/KsJ db/db mouse [1]; EXPT II, dietary admixture, Day 3, control 20.2 ± 3.9, *** p < 0.001): 12.2 ± 5.1 mmo/l
- Blood glucose, Day 5 (C57 Bl/KsJ db/db mouse [1]; EXPT II, dietary admixture, Day 5, control 21.2 ± 1.9, *** p < 0.001): 11.3 ± 3.6 mmo/l
- Blood glucose, Day 7 (C57 Bl/KsJ db/db mouse [1]; EXPT II, dietary admixture, Day 7, control 23.4 ± 2.0, *** p < 0.001): 11.7 ± 3.7 mmo/l
- Blood glucose, pre-dose (C57 Bl/KsJ db/db mouse [1]; EXPT II, control 16.5 ± 2.9): 16.2 ± 4.3 mmo/l
- Serum non-esterified fatty acids (C57 Bl/KsJ db/db mouse [2]; control 2.58 ± 0.45): 1.28 ± 0.15 mmol/L
- Serum triglycerides (C57 Bl/KsJ db/db mouse [2]; control 3.78 ± 1.34): 2.58 ± 0.45 mmol/L
